How the values were obtained:
Canis familiaris [1] = assay: Change in mean blood pressure (MBP) in dog 1 after oral administration after a period of 300 min; assay type: functional, Canis lupus familiaris
Canis familiaris [2] = assay: Change in mean blood pressure (MBP) in dog 2 after oral administration after a period of 180 min; assay type: functional, Canis lupus familiaris
Canis familiaris [3] = assay: Change in mean blood pressure (MBP) in dog 2 after oral administration after a period of 30 min; assay type: functional, Canis lupus familiaris
Canis familiaris [4] = assay: Change in mean blood pressure (MBP) in dog 2 after oral administration after a period of 75 min; assay type: functional, Canis lupus familiaris
Canis familiaris [5] = assay: Change in mean blood pressure (MBP) in dog 3 after oral administration after a period of 30 min; assay type: functional, Canis lupus familiaris
Canis familiaris [6] = assay: Change in mean blood pressure (MBP) in dog 2 after oral administration after a period of 240 min; assay type: functional, Canis lupus familiaris
Canis familiaris [7] = assay: Change in mean blood pressure (MBP) in dog 3 after oral administration after a period of 150 min; assay type: functional, Canis lupus familiaris
Canis familiaris [8] = assay: Change in mean blood pressure (MBP) in dog 2 after oral administration after a period of 45 min; assay type: functional, Canis lupus familiaris
Canis familiaris [9] = assay: Change in mean blood pressure (MBP) in dog 2 after oral administration after a period of 15 min; assay type: functional, Canis lupus familiaris
Canis familiaris [10] = assay: Change in mean blood pressure (MBP) in dog 1 after oral administration after a period of 10 min; assay type: functional, Canis lupus familiaris
Canis familiaris [11] = assay: Change in mean blood pressure (MBP) in dog 3 after oral administration after a period of 240 min; assay type: functional, Canis lupus familiaris
Canis familiaris [12] = assay: Change in mean blood pressure (MBP) in dog 1 after oral administration after a period of 240 min; assay type: functional, Canis lupus familiaris
Canis familiaris [13] = assay: Change in mean blood pressure (MBP) in dog 2 after oral administration after a period of 60 min; assay type: functional, Canis lupus familiaris
Canis familiaris [14] = assay: Change in mean blood pressure (MBP) in dog 1 after oral administration after a period of 75 min; assay type: functional, Canis lupus familiaris
Canis familiaris [15] = assay: Change in mean blood pressure (MBP) in dog 1 after oral administration after a period of 30 min; assay type: functional, Canis lupus familiaris
Canis familiaris [16] = assay: Change in mean blood pressure (MBP) in dog 1 after oral administration after a period of 15 min; assay type: functional, Canis lupus familiaris
Canis familiaris [17] = assay: Change in mean blood pressure (MBP) in dog 3 after oral administration after a period of 45 min; assay type: functional, Canis lupus familiaris
Canis familiaris [18] = assay: Change in mean blood pressure (MBP) in dog 3 after oral administration after a period of 90 min; assay type: functional, Canis lupus familiaris
Canis familiaris [19] = assay: Change in mean blood pressure (MBP) in dog 2 after oral administration after a period of 150 min; assay type: functional, Canis lupus familiaris
Canis familiaris [20] = assay: Change in mean blood pressure (MBP) in dog 3 after oral administration after a period of 15 min; assay type: functional, Canis lupus familiaris
Canis familiaris [21] = assay: Change in mean blood pressure (MBP) in dog 2 after oral administration after a period of 90 min; assay type: functional, Canis lupus familiaris
Canis familiaris [22] = assay: Change in mean blood pressure (MBP) in dog 1 after oral administration after a period of 180 min; assay type: functional, Canis lupus familiaris
Canis familiaris [23] = assay: Change in mean blood pressure (MBP) in dog 1 after oral administration after a period of 45 min; assay type: functional, Canis lupus familiaris
Canis familiaris [24] = assay: Change in mean blood pressure (MBP) in dog 3 after oral administration after a period of 180 min; assay type: functional, Canis lupus familiaris
Canis familiaris [25] = assay: Change in mean blood pressure (MBP) in dog 2 after oral administration after a period of 120 min; assay type: functional, Canis lupus familiaris
Canis familiaris [26] = assay: Change in mean blood pressure (MBP) in dog 3 after oral administration after a period of 60 min; assay type: functional, Canis lupus familiaris
Canis familiaris [27] = assay: Change in mean blood pressure (MBP) in dog 1 after oral administration after a period of 90 min; assay type: functional, Canis lupus familiaris
Canis familiaris [28] = assay: Change in mean blood pressure (MBP) in dog 1 after oral administration after a period of 60 min; assay type: functional, Canis lupus familiaris
Canis familiaris [29] = assay: Change in mean blood pressure (MBP) in dog 3 after oral administration after a period of 120 min; assay type: functional, Canis lupus familiaris
Canis familiaris [30] = assay: Change in mean blood pressure (MBP) in dog 1 after oral administration after a period of 120 min; assay type: functional, Canis lupus familiaris
Canis familiaris [31] = assay: Change in mean blood pressure (MBP) in dog 1 after oral administration after a period of 150 min; assay type: functional, Canis lupus familiaris
Canis familiaris [32] = assay: Change in mean blood pressure (MBP) in dog 3 after oral administration after a period of 75 min; assay type: functional, Canis lupus familiaris
Canis familiaris [33] = assay: Change in mean blood pressure (MBP) in dog 2 after oral administration after a period of 300 min; assay type: functional, Canis lupus familiaris
Canis familiaris [34] = assay: Change in mean blood pressure (MBP) in dog 3 after oral administration after a period of 300 min; assay type: functional, Canis lupus familiaris
Sus scrofa = organism: Sus scrofa; assay: Concentration required for 50% inhibition of porcine kidney renin at 10e-7 nM concentration; assay type: functional
[35] = Partition coefficient (logD) (octanol/citric acid-phosphate buffer)
physchem [36] = details: phosphate buffer, pH 7.4, S
Description: Solubility (phosphate buffer, pH 7.4)

physchem [37] = details: S
[38] = buffer, pH 7.4
Description: Solubility (phosphate buffer, pH 7.4)

`CC(C)C[C@H](NC(=O)CC(O)C(CC1CCCCC1)NC(=O)[C@H](Cc1c[nH]cn1)NC(=O)[C@H](Cc1ccccc1)NC(=O)OC(C)(C)C)C(=O)NCc1cccc(CN)c1` (stereo not given in full) gave an MBP (Canis familiaris [1]) of -10 mmHg, an MBP (Canis familiaris [2]) of -2 mmHg and an MBP (Canis familiaris [3]) of -3 mmHg. It also gave an MBP (Canis familiaris [4]) of 1 mmHg, an MBP (Canis familiaris [5]) of -6 mmHg and an MBP (Canis familiaris [6]) of -1 mmHg. It also gave an MBP (Canis familiaris [7]) of -2 mmHg, an MBP (Canis familiaris [8]) of -4 mmHg and an MBP (Canis familiaris [9]) of -6 mmHg. The MBP (Canis familiaris [10]) was -12 mmHg, the MBP (Canis familiaris [11]) was -3 mmHg and the MBP (Canis familiaris [12]) was 1 mmHg. The MBP (Canis familiaris [13]) was 0 mmHg, the MBP (Canis familiaris [14]) was -7 mmHg and the MBP (Canis familiaris [15]) was -2 mmHg. The MBP (Canis familiaris [16]) was -18 mmHg, the MBP (Canis familiaris [17]) was -7 mmHg and the MBP (Canis familiaris [18]) was -2 mmHg. For the same molecule, the MBP (Canis familiaris [19]) was -3 mmHg, the MBP (Canis familiaris [20]) was 1 mmHg and the MBP (Canis familiaris [21]) was -5 mmHg. The MBP (Canis familiaris [22]) was -13 mmHg, the MBP (Canis familiaris [23]) was -6 mmHg and the MBP (Canis familiaris [24]) was -5 mmHg. The MBP (Canis familiaris [25]) was -4 mmHg, the MBP (Canis familiaris [26]) was -5 mmHg and the MBP (Canis familiaris [27]) was 1 mmHg. The MBP (Canis familiaris [28]) was -4 mmHg, the MBP (Canis familiaris [29]) was 1 mmHg and the MBP (Canis familiaris [30]) was -2 mmHg. It also gave an MBP (Canis familiaris [31]) of -1 mmHg, an MBP (Canis familiaris [32]) of -9 mmHg and an MBP (Canis familiaris [33]) of -1 mmHg. The MBP (Canis familiaris [34]) was -3 mmHg.

Molecule `CC(C)CC(NC(=O)[C@H](Cc1c[nH]cn1)NC(=O)[C@H](Cc1ccccc1)NC(=O)OC(C)(C)C)C(O)CC(=O)N[C@@H](CC(C)C)C(=O)NCCS(=O)(=O)O` (stereo not given in full) has an Inhibition (Sus scrofa) of 0%, a logD [35] of 0.633 and a solubility (physchem [36]) greater than 11 mM. For the same molecule, the solubility (physchem [37]) was greater than 11 mM.

In the case of `CC(C)CC(NC(=O)[C@H](Cc1c[nH]cn1)NC(=O)[C@H](Cc1ccccc1)NC(=O)OC(C)(C)C)C(O)CC(=O)N[C@@H](CC(C)C)C(=O)NCCC(N)C(=O)O` (stereo in doubt; 16), the S [38] is reported as 6100 µM and the S is reported as 2300 µM.

From ChEMBL document CHEMBL1123973, “Renin inhibitors containing hydrophilic groups. Tetrapeptides with enhanced aqueous solubility and nanomolar potency” (J Med Chem, 1988)
